Test results published in ChEMBL document CHEMBL1153003, “Synthesis and affinity to DNA of phenylbenzoimidazoles and benzoimidazo[1,2-c]quinazolines” (Eur J Med Chem, 2009).

System: Calf thymus DNA
Test: Displacement of ethidium bromide from calf thymus DNA
Format: nucleic-acid assay
Details: Bos taurus

Compound	logC50	logKA
CN1CCN(CCc2nc3ccccc3c3nc4ccccc4n23)CC1	-4.18	6.28
CC1CCCCN1CCc1nc2ccccc2c2nc3ccccc3n12 (configuration not stated)	-4.17	6.27
CC1CCCCN1Cc1nc2ccccc2c2nc3ccccc3n12 (configuration not stated)	-3.65	5.75
c1ccc2c(c1)nc(CCN1CCOCC1)n1c3ccccc3nc21	-4.12	6.22
CC1CCN(Cc2nc3ccccc3c3nc4ccccc4n23)CC1	-3.83	5.93
CC1CCN(CC(=O)Nc2ccccc2-c2nc3ccccc3[nH]2)CC1	-2.84	4.94
CCN(CC)CCOc1ccc2c(c1)C(=O)c1cc(OCCN(CC)CC)ccc1-2	-4.2	6.3
CN1CCN(CC(=O)Nc2ccccc2-c2nc3ccccc3[nH]2)CC1	-2.32	4.42
O=C(CN1CCOCC1)Nc1ccccc1-c1nc2ccccc2[nH]1	-2.58	4.68
CC1CCN(CCC(=O)Nc2ccccc2-c2nc3ccccc3[nH]2)CC1	-2.83	4.93
O=C(CCN1CCOCC1)Nc1ccccc1-c1nc2ccccc2[nH]1	-2.92	5.02
c1ccc2c(c1)nc(CN1CCOCC1)n1c3ccccc3nc21	-3.44	5.54
O=C(CCN1CCCCC1)Nc1ccccc1-c1nc2ccccc2[nH]1	-2.8	4.9
c1ccc2c(c1)nc(CN1CCCCC1)n1c3ccccc3nc21	-3.84	5.94
CN1CCN(Cc2nc3ccccc3c3nc4ccccc4n23)CC1	-3.72	5.82
CC1CCN(CCc2nc3ccccc3c3nc4ccccc4n23)CC1	-4.23	6.33
CN1CCN(CCC(=O)Nc2ccccc2-c2nc3ccccc3[nH]2)CC1	-2.86	4.96
CC1CCCCN1CC(=O)Nc1ccccc1-c1nc2ccccc2[nH]1 (configuration not stated)	-2.66	4.76
O=C(CN1CCCCC1)Nc1ccccc1-c1nc2ccccc2[nH]1	-2.65	4.75
c1ccc2c(c1)nc(CCN1CCCCC1)n1c3ccccc3nc21	-4.03	6.13
CC1CCCCN1CCC(=O)Nc1ccccc1-c1nc2ccccc2[nH]1 (configuration not stated)	-2.66	4.76
